# Experimental data from publication PMC3130825 (Journal of medicinal chemistry, 2010).
# Values joined by “and” are separate entries in the source; they are usually repeats but may differ in a detail not shown here. Equal entries are not always repeated.
# How the values were obtained:
# [1] = test system: nicotine-induced antinociception (tail-flick); test: Block of nicotine-induced antinociception, tail-flick test; type: in vivo, mice; conditions: for ED50: Mus musculus, read-out: AD50 Tail-flick; for potency relative to 2 in the tail-flick assay: mouse, in vivo
# [2] = test system: nicotine-induced hypothermia; test: Block of nicotine-induced hypothermia; design: species or system mice; conditions: mouse, in vivo
# [3] = target: hNET (Homo sapiens, UniProt P23975); test: [3H]norepinephrine uptake inhibition in HEK293 cells; type: cell-based; conditions: for potency relative to 2 as NE uptake inhibitor: better than 2
# [4] = test system: nicotine-induced antinociception (hot-plate); test: Block of nicotine-induced antinociception, hot-plate test; design: species or system mice; conditions: mouse, in vivo
# [5] = target: hSERT (Homo sapiens, UniProt P31645); type: cell-based
# [6] = cited from earlier work
# [7] = test system: nicotine-induced CPP; test: Block of development of nicotine conditioned place preference; design: species or system mice; conditions: mouse, in vivo
# [8] = test system: locomotor activity; conditions: cited from earlier work
# [9] = test system: CB-1 cannabinoid receptor; conditions: cited from earlier work
# [10] = target: α3β4*-nAChR (Homo sapiens, UniProt P30926+P32297); test: 86Rb+ efflux assay, SH-SY5Y cells; type: cell-based
# [11] = test system: nicotine-induced locomotor effect; test: Block of nicotine effect on locomotor activity; design: species or system mice; conditions: mouse, in vivo
# α3β4*-nAChR, sequence (P32297 32-505): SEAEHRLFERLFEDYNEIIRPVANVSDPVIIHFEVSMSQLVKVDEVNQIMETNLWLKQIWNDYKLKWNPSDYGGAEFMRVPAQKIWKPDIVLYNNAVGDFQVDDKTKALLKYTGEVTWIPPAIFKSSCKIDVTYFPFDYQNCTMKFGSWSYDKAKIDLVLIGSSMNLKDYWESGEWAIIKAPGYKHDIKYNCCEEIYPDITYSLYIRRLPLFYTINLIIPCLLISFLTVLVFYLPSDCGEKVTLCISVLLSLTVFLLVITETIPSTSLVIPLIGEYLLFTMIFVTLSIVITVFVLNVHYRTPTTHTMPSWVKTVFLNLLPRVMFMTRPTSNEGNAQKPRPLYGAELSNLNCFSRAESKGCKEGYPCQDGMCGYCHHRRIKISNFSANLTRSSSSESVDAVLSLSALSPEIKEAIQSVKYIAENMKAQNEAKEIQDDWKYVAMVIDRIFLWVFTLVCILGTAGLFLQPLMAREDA
# α3β4*-nAChR, sequence (P30926 22-498): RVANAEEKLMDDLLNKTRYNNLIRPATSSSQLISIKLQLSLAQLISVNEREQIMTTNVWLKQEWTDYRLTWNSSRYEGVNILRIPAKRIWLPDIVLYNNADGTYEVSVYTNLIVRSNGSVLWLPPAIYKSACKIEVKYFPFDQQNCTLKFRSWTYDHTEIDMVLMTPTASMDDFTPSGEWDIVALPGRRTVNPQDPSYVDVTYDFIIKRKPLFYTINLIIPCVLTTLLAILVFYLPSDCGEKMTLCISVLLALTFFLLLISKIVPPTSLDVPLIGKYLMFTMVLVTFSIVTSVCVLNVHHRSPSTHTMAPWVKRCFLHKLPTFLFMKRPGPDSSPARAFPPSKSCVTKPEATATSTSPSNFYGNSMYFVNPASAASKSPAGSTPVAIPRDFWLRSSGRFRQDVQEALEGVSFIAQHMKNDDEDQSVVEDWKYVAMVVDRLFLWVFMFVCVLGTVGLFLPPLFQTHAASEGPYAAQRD
# hNET, sequence (P23975 whole entry): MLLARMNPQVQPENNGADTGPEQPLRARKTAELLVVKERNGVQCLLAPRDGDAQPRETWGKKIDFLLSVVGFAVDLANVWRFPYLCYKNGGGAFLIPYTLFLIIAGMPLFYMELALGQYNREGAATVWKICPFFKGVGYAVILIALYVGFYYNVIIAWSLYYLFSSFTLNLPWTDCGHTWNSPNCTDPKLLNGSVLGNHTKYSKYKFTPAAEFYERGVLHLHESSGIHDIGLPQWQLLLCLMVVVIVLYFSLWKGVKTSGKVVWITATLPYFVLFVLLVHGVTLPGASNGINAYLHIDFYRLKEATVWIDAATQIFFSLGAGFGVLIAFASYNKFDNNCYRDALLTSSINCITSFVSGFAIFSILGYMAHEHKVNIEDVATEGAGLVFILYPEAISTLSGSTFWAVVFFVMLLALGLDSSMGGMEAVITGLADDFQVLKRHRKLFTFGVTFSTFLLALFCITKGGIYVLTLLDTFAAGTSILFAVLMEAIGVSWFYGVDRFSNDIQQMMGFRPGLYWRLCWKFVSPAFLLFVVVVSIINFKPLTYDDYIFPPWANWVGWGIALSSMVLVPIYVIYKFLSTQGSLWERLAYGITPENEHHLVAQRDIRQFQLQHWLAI
# hSERT, sequence (P31645 whole entry): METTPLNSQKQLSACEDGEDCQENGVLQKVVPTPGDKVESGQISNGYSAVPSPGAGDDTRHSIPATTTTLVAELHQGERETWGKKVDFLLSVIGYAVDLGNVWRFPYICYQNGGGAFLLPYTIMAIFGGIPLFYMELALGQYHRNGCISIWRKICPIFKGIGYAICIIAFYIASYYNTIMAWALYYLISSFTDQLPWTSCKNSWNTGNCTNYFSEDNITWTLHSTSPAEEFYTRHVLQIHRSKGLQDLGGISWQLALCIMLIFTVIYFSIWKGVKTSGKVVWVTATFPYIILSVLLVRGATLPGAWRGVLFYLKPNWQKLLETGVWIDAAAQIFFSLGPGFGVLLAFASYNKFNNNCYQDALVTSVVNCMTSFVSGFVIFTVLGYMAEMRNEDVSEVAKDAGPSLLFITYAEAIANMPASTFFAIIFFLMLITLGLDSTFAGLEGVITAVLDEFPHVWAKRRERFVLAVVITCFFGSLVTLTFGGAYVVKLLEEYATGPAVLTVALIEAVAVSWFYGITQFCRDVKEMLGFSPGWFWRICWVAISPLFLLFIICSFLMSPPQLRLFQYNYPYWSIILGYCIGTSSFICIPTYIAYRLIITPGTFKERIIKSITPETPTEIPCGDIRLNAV
smiles,measurement,setting,value
"CC(NC(C)(C)C)C(=O)c1cccc(Cl)c1 (centres unmarked) [Compound 2, bupropion, reference compound]",ED50,[1],1.2 mg/kg
"Cc1ccc([C@H]2C[C@@H]3CC[C@H]([C@H]2C(=O)OC(C)C)N3C)cc1 [Compound 4a, 3β-(4-Methylphenyl)tropane-2β-carboxylic acid isopropyl ester]",ED50,[1],0.015 mg/kg
Cc1ccc([C@H]2C[C@@H]3CC[C@H]([C@H]2C(=O)OC2CCC2)N3C)cc1 [Compound 4b],ED50,[1],0.28 mg/kg
"CCc1cc([C@H]2[C@@H](c3ccc(C)cc3)C[C@@H]3CC[C@H]2N3C)on1 [Compound 4c, 3β-(4-methylphenyl)-2β-(3′-ethylisoxazol-5′-yl)tropane]",potency relative to 2 in the hypothermia (body temperature) test,[2],marginally more potent
same,ED50,[1],0.008 mg/kg
same,potency relative to 2 in the tail-flick assay,[1],150 fold
same,potency relative to 2 as NE uptake inhibitor,[3],~ 170 fold
same,potency relative to 2 in the hot-plate assay,[4],9 fold
same,potency relative to 2 as 5HT uptake inhibitor,[5],no less than 5 fold
Cc1ccc([C@H]2C[C@@H]3CC[C@H]([C@H]2c2cc(-c4ccc(Cl)cc4)no2)N3C)cc1 [Compound 4d],ED50,[1],> 20 mg/kg
same,brain levels in in vivo binding studies,[6],appreciable brain levels were achieved
same,potency relative to 2 in the CPP assay,[7],27 fold
same,locomotor activity in rats,[8],did not show locomotor activity
same,modulation of the CB-1 cannabinoid receptor,[9],positive allosteric modulator
COc1ccc(-c2cc([C@H]3[C@@H](c4ccc(Cl)cc4)C[C@@H]4CC[C@H]3N4C)on2)cc1 [Compound 4e],ED50,[1],0.018 mg/kg
same,preference for functional inhibition of α3β4*- over α4β4-nAChR,[10],> 56 fold
"COC(=O)[C@H]1[C@@H](c2ccc(Cl)c(C)c2)C[C@@H]2CC[C@H]1N2C [Compound 4g, 3β-(4-chlorophenyl-3-methyl)tropane-2β-carboxylic acid methyl ester]",potency relative to 2 in the hypothermia (body temperature) test,[2],65 fold
same,ED50,[1],0.21 mg/kg
same,potency relative to 2 in the tail-flick assay,[1],6 fold
same,potency relative to 2 as NE uptake inhibitor,[3],~ 2000 fold
same,potency relative to 2 in the locomotor test,[11],44 fold
same,potency relative to 2 in the hot-plate assay,[4],40 fold
"COC(=O)[C@H]1[C@@H](c2ccc(Cl)c(C)c2)C[C@@H]2CC[C@H]1N2 [Compound 4h, 3β-(4-chloro-3-methylphenyl)nortropane-2β-carboxylic acid methyl ester]",ED50,[1],0.003 mg/kg
"Cc1cc([C@H]2[C@@H](c3ccc(Cl)c(C)c3)C[C@@H]3CC[C@H]2N3C)on1 [Compound 4i, 3β-(4-chloro-3-methylphenyl)-2β-(3′-methylisoxazol-5′-yl)tropane]",ED50,[1],0.009 mg/kg
same,preference for functional inhibition of α3β4*- over α4β2-nAChR,[10],11 fold and 10–13 fold
Cc1cc([C@H]2C[C@@H]3CC[C@H]([C@H]2c2cc(-c4ccccc4)no2)N3C)ccc1Cl [Compound 4j],ED50,[1],2.5 mg/kg
same,preference for NE over DA uptake inhibition,[3],comparable
same,preference for functional inhibition of α3β4*- over α4β2-nAChR,[10],10–13 fold
"COC(=O)[C@@H]1[C@H]2CC[C@@H](C[C@H]1c1ccc(Cl)c(C)c1)N2C [Compound 4k, 3α-(4-Chloro-3-methylphenyl)tropane-2β-carboxylic acid Methyl Ester]",ED50,[1],0.026 mg/kg
